Laboratory results from patent US10195196B2, “1,4-disubstituted pyridazine analogs there of and methods for treating SMN-deficiency-related conditions” (NOVARTIS AG, priority 2012, dated 2019).

Tested on: SMN protein
Assay: cellular SMN ELISA (SMN protein elevation)
Assay type: cell-based
Conditions: myoblast cell line from SMNdelta7 mouse model, 24 hours treatment; for SMN activity Fold: fold activation over DMSO control
Description: A cellular SMN ELISA was used to measure the effects of low molecular weight compounds on SMN protein elevation. Cells from a myoblast cell line derived from the SMNdelta7 mouse model (kind gift from Steve Burden, NYU) were seeded into a 384-well plate at a density of 3000 cells/well and treated with compounds for 24 hours. ELISA capture plates were prepared by coating 384-well plates (Immulon 4HBX) with 0.5 ug/mL of anti-SMN mAb (BD Science, Catalog number 610647) at 4° C. overnight. The plates were washed 5 times with 110 uL of PBS-Tween (0.05% Tween-20, PBST), blocked with 100 uL of 1% BSA in PBST for 2 hours and washed (5 times) with 100 uL of PBST. After 24 hours of compound treatment cells were lysed in a modified RIPA-buffer, on ice for 1 hour. 20 uL of lysate and 20 uL of 1% BSA were then added to the ELISA capture plates and incubated at 4° C. overnight. Plates were washed (5 times) with PBST and then incubated with 1:100 dilution of primary rabbit anti-SMN polyclonal antibody (Santa cruz, Catalog number SC-15320) at room temperature for 1 hour and subsequently washed (5 times) with 110 uL of PBST. This was followed by addition of 1:100 Goat anti-Rabbit IgG-HRP linked (Cell Signaling, Catalog number 7074) secondary antibody for 1 hour. Plates were then washed with PBST and incubated with 40 uL TMB substrate (Cell Signaling, Catalog number 7004L) at room temperature for 1-10 minutes with shaking. The reaction was stopped by addition of 40 uL of stop solution (Cell signaling, Catalog number 7002L) and absorption was measured at 450 nm. Data was reported as fold activation over DMSO control, and EC50.
ELISA assay condition 1: compound concentration range 20 nM-10 uM; ELISA assay condition 2: compound concentration 100 pM-10 uM.

[1] = ELISA condition 2: compound concentration 100 pM-10 uM
[2] = ELISA condition 1: compound concentration range 20 nM-10 uM

Row | EC50 [1] [nM] | SMILES | SMN activity Fold [1] [Fold] | EC50 [2] [nM] | SMN activity Fold [2] [Fold]
1 | 183 | CC1CC(Oc2ccc(-c3ccc(-n4cccn4)cc3O)nn2)CC(C)N1 (single isomer, unassigned) [Example 17-3, 2-(6-((2,6-Dimethylpiperidin-4-yl)oxy)pyridazin-3-yl)-5-(1H-pyrazol-1-yl)phenol] | 2.75 |  | 
2 | 92 | CC1CC(Oc2ccc(-c3ccc(-n4cccn4)cc3O)nn2)CC(C)N1 (single isomer, unassigned) [Example 17-4, 2-(6-((2,6-Dimethylpiperidin-4-yl)oxy)pyridazin-3-yl)-5-(1H-pyrazol-1-yl)phenol] | 3.25 |  | 
3 | 443 | CC1CC(Oc2ccc(-c3ccc(-n4cccn4)cc3O)nn2)CCN1 (single isomer, unassigned) [Example 17-6] | 2.58 |  | 
4 | 617 | CC1CC(Oc2ccc(-c3ccc(-n4cccn4)cc3O)nn2)CCN1 (single isomer, unassigned) [Example 17-7] | 2.50 |  | 
5 | 3150 | Oc1cc(-n2cccn2)ccc1-c1ccc(OCC2CCNC2)nn1 (single isomer, unassigned) [Example 17-8, 5-(1H-pyrazol-1-yl)-2-(6-(pyrrolidin-3-ylmethoxy)pyridazin-3-yl)phenol] | 2.18 |  | 
6 | 1670 | Oc1cc(-n2cccn2)ccc1-c1ccc(OCC2CCNC2)nn1 (single isomer, unassigned) [Example 17-9, 5-(1H-pyrazol-1-yl)-2-(6-(pyrrolidin-3-ylmethoxy)pyridazin-3-yl)phenol] | 2.63 |  | 
7 | 1100 | CC1(C)CC(Oc2ccc(-c3ccc4ccncc4c3)nn2)CC(C)(C)N1 [Example 1-10, 7-(6-((2,2,6,6-tetramethylpiperidin-4-yl)oxy)pyridazin-3-yl)isoquinoline] | 2.75 |  | 
8 | 3900 | CC1(C)CC(Oc2ccc(-c3ccc4cnccc4c3)nn2)CC(C)(C)N1 [Example 1-11, 6-(6-((2,2,6,6-tetramethylpiperidin-4-yl)oxy)pyridazin-3-yl)isoquinoline] | 2.67 |  | 

More lines, now with the values behind:

Row | SMILES | EC50 [1] [nM] | SMN activity Fold [1] [Fold] | EC50 [2] [nM] | SMN activity Fold [2] [Fold]
9 | CC1(C)CC(Nc2ccc(-c3ccccc3O)nn2)CC(C)(C)N1 [Example 1-3, 2-(6-(2,2,6,6-tetramethylpiperidin-4-ylamino)-pyridazin-3-yl)phenol] | 726 | 2.45 |  | 
10 | CN(c1ccc(-c2cc3cc(C#N)ccc3s2)nn1)C1CC(C)(C)NC(C)(C)C1 [Example 1-4, 2-(6-(methyl-(2,2,6,6-tetra-methylpiperidin-4-yl)amino)pyridazin-3-yl)benzo[b]-thio-phene-5-carbonitrile] |  |  | 90 | 2.05
11 | CC1(C)CC(Nc2ccc(-c3cnc4ccccc4c3)nn2)CC(C)(C)N1 [Example 1-5, 6-(quinolin-3-yl)-N-(2,2,6,6-tetramethyl-piperidin-4-yl)pyridazin-3-amine] |  |  | 650 | 2.50
12 | CC1(C)CC(Oc2ccc(-c3cc4ccccc4s3)nn2)CC(C)(C)N1 [Example 1-6, 3-(benzo[b]-thiophen-2-yl)-6-(2,2,6,6-tetra-methylpiperidin-4-yloxy)pyridazine] |  |  | 2440 | 2.00
13 | CN(c1ccc(-c2ccccc2O)nn1)C1CC(C)(C)NC(C)(C)C1 [Example 1-7, 2-(6-(methyl-(2,2,6,6-tetra-methylpiperidin-4-yl)amino)-pyridazin-3-yl)phenol] |  |  | 1550 | 2.07
14 | CN(c1ccc(-c2ccc3cc(O)ccc3c2)nn1)C1CC(C)(C)NC(C)(C)C1 [Example 1-8, 6-(6-(methyl-(2,2,6,6-tetra-methylpiperidin-4-yl)amino)-pyridazin-3-yl)naphthalen-2-ol] |  |  | 320 | 2.18
15 | CN(c1ccc(-c2ccc3cccnc3c2)nn1)C1CC(C)(C)NC(C)(C)C1 [Example 1-12, N-methyl-6-(quinolin-7-yl)-N-(2,2,6,6-tetramethyl-piperidin-4-yl)pyridazin-3-amine] | 367 | 2.54 |  | 
16 | CN(c1ccc(-c2ccc3ncccc3c2)nn1)C1CC(C)(C)NC(C)(C)C1 [Example 1-13, N-methyl-6-(quinolin-6-yl)-N-(2,2,6,6-tetramethylpiperidin-4-yl)pyridazin-3-amine] | 661 | 2.22 |  | 
17 | CN(c1ccc(-c2ccc3ccncc3c2)nn1)C1CC(C)(C)NC(C)(C)C1 [Example 1-14, 6-(isoquinolin-7-yl)-N-methyl-N-(2,2,6,6-tetramethylpiperidin-4-yl)pyridazin-3-amine] | 252 | 3.13 |  | 
18 | CN(c1ccc(-c2ccc3cnccc3c2)nn1)C1CC(C)(C)NC(C)(C)C1 [Example 1-15, 6-(isoquinolin-6-yl)-N-methyl-N-(2,2,6,6-tetramethylpiperidin-4-yl)pyridazin-3-amine] | 197 | 2.93 |  | 
19 | CN(c1ccc(-c2ccc3nccn3c2)nn1)C1CC(C)(C)NC(C)(C)C1 [Example 1-16, 6-(imidazo[1,2-a]pyridin-6-yl-pyridazin-3-yl)-methyl-(2,2,6,6-tetramethyl-piperidin-4-yl)-amine] | 2980 | 2.28 |  | 
20 | CN(c1ccc(-c2ccc(-c3ccccc3)nc2)nn1)C1CC(C)(C)NC(C)(C)C1 [Example 1-17, methyl-[6-(6-phenyl-pyridin-3-yl)-pyridazin-3-yl]-(2,2,6,6-tetramethyl-piperidin-4-yl)-amine] | 926 | 2.37 |  | 
21 | CN(c1ccc(-c2ccc(-n3cccc3)nc2)nn1)C1CC(C)(C)NC(C)(C)C1 [Example 1-18, methyl-[6-(6-pyrrol-1-yl-pyridin-3-yl)-pyridazin-3-yl]-(2,2,6,6-tetramethyl-piperidin-4-yl)-amine] |  |  | 1130 | 2.69
22 | CN(c1ccc(-c2ccc(-n3cccn3)nc2)nn1)C1CC(C)(C)NC(C)(C)C1 [Example 1-19, methyl-[6-(6-pyrazol-1-yl-pyridin-3-yl)-pyridazin-3-yl]-(2,2,6,6-tetramethyl-piperidin-4-yl)-amine] |  |  | 740 | 3.10
23 | CN(c1ccc(-c2cnc3ccccc3n2)nn1)C1CC(C)(C)NC(C)(C)C1 [Example 1-20, methyl-(6-quinoxalin-2-yl-pyridazin-3-yl)-(2,2,6,6-tetramethyl-piperidin-4-yl)-amine] |  |  | 470 | 3.04
24 | CN(c1ccc(-c2cnc3ccccc3c2)nn1)C1CC(C)(C)NC(C)(C)C1 [Example 1-21, methyl-(6-quinolin-3-yl-pyridazin-3-yl)-(2,2,6,6-tetramethyl-piperidin-4-yl)-amine] |  |  | 630 | 2.49
25 | CN(c1ccc(-c2ccc3cnncc3c2)nn1)C1CC(C)(C)NC(C)(C)C1 [Example 1-22, N-methyl-6-(phthalazin-6-yl)-N-(2,2,6,6-tetramethylpiperidin-4-yl)pyridazin-3-amine] | 867 | 2.71 |  | 
26 | CC1(C)CC(Nc2ccc(-c3ccc4nonc4c3)nn2)CC(C)(C)N1 [Example 2-1, 6-(benzo[c][1,2,5]oxa-diazol-5-yl)-N-(2,2,6,6-tetramethyl-piperidin-4-yl)pyridazin-3-amine] |  |  | 1370 | 2.68
27 | CC1(C)CC(Nc2ccc(-c3ccc4scnc4c3)nn2)CC(C)(C)N1 [Example 2-2, 6-(benzo[d]thiazol-5-yl)-N-(2,2,6,6-tetramethyl-piperidin-4-yl)pyridazin-3-amine] |  |  | 1030 | 2.37
28 | Cc1nc2ccc(-c3ccc(NC4CC(C)(C)NC(C)(C)C4)nn3)cc2o1 [Example 2-3, 6-(2-methylbenzo-[d]oxazol-6-yl)-N-(2,2,6,6-tetramethyl-piperidin-4-yl)pyridazin-3-amine] |  |  | 1200 | 2.46
29 | CN(c1ccc(-c2ccc(Cl)cc2O)nn1)C1CC(C)(C)N(C)C(C)(C)C1 [Example 3-2, 5-chloro-2-(6-(methyl(1,2,2,6,6-pentamethylpiperidin-4-yl)amino)pyridazin-3-yl)phenol] |  |  | 1070 | 2.06
30 | CC1(C)CC(Nc2ccc(-c3cc4ccccc4cc3O)nn2)CC(C)(C)N1 [Example 3-3, 3-(6-(2,2,6,6-tetramethylpiperidin-4-ylamino)pyridazin-3-yl)naphthalen-2-ol] |  |  | 64 | 2.48
31 | CN1C(C)(C)CC(Nc2ccc(-c3ccc(Cl)cc3O)nn2)CC1(C)C [Example 3-4, 5-chloro-2-(6-(1,2,2,6,6-pentamethylpiperidin-4-ylamino)pyridazin-3-yl)phenol] |  |  | 620 | 2.03
